Results on 13 compounds are retold here after PMC10934158, “Constituents of Chimaphila japonica and Their Diuretic Activity” (Molecules, 2024).

“And” between values parts separate entries of the source, which are not always exact repeats. Identical values can stand only once. Like-named read-outs stand apart in the source and are kept apart here. Marks after values point to notes of the source that are not given here. Bounds are passed on as bounds.

Assay type in all cases: cell-based
One assay relates to MDCK cells. In words: MTT cytotoxicity assay on MDCK cells. Conditions: 100 µmol/L, 24 h incubation, mean ± SD of three replicates; for inhibition at 100 µM: Canis lupus familiaris, read-out: Growth Inhibition Rate (%). As for the experimental part:
First, we used the MTT method to examine the cytotoxicity of the compounds (1–12) on MDCK cells at a concentration of 100 µmol/L, and the results are shown in Table 5.
Each compound was evaluated for cytotoxicity on DMCK cells using MTT assays. A 96-well plate containing 1 × 10^4 cells per well was seeded with logarithmic growth-phase DMCK cells, which were then cultured for 24 h in a cell culture incubator. After that, the culture medium was changed to one that included medication (100 µmol/L for the treatment groups, 100 µmol/L for the control group, or 100 µmol/L for the positive control group). In total, 100 µL of the appropriate solution was added to each well, and they were then incubated for a further 24 h. After that, culture media were taken out and changed for a DMEM solution that included 20 µL of MTT (5 mg/mL). After incubating for 4 h, the liquid in each well was removed and replaced with 150 µL of DMSO, which was shaken for 10 min to ensure thorough mixing. The absorbance at 490 nm was measured to determine the optical density (OD) of each well. The cell growth inhibition rate was calculated as follows: cell growth inhibition rate (%) = (ODBlank − ODExperimental)/ODBlank × 100%.

Assay [1] relates to Na^+ transport in MDCK cells. In words: In vitro diuretic activity assay: Na+ transport across MDCK cells in Transwell chamber. The following applies: for inhibition at 100 µM: Canis lupus familiaris; for inhibition at 100 µM / Transport Inhibition Rate (%) Na^+: compounds 100 µmol/L, hydrochlorothiazide 200 µmol/L, mean ± SD of three replicates; for Diuretic activity (overall, in words): in vitro Na^+ and Cl^− transport bioassays. As to the method:
(§1) Generally, the transport of Na^+ and Cl^− plays an essential role in glomerular filtration and tubular reabsorption.
(§2) Log-phase MDCK cells were seeded in the upper chambers of Transwell plates (4 × 10^4 cells/well), and 800 µL of complete culture medium was added to the lower chambers. After 24 h of incubation at 37 ℃, the electrical resistance of the upper chamber cells was measured one by one (R = (Rcell − Rblank) × 0.04π). When the electrical resistance of the upper chamber cells reached ≥ 300 Ω cm^2, the upper chamber medium was removed and replaced with the drug solution. The blank group (given normal saline), experimental group (1, 4–12, 100 µmol/L), and hydrochlorothiazide group (200 µmol/L) were set, and each well was treated with 200 µL of the corresponding solution. The cells were then further incubated for 24 h. After that, the upper and lower chamber fluids were removed, and 200 µL of NaCl solution (21 mg/mL) was added to the upper chamber, while 800 µL of DMEM was added to the lower chamber for continued incubation. At 1, 2, and 3 h, 50 µL of the lower chamber fluid was taken, and the OD values were measured using Na^+ and Cl^− detection kits. The transport inhibition rate (%) was calculated as follows: transport inhibition rate (%) = (ODblank − ODexperimental)/ODblank × 100%.

Assay [2] has as its system Cl^− transport in MDCK cells. In words: In vitro diuretic activity assay: Cl− transport across MDCK cells in Transwell chamber. The following applies: for inhibition at 100 µM: Canis lupus familiaris, read-out: Transport Inhibition Rate (%) Cl^−; for Inhibitory activity on Cl^− transport compared to blank group (in words): 100 µmol/L, significance vs blank group. As for the experimental part:
as §1, §2

The mark [3] stands for this setting: MDCK, read-out: Transport Inhibition Rate (%) Na^+, MDCK Transwell.
The mark [4] stands for this setting: MDCK Transwell, read-out: Transport Inhibition Rate (%) Na^+.
Setting [5] is: MDCK Transwell, compounds 100 µmol/L, hydrochlorothiazide 200 µmol/L, mean ± SD of three replicates.

As to `Cc1cc(O)ccc1O[C@H]1O[C@@H](CO)[C@H](O[C@H]2O[C@@H](CO)[C@H](O)[C@@H](O)[C@@H]2O)[C@@H](O)[C@@H]1O` [Compound 2, 4′-O-β-D-glucopyranosyl-isohomoarbutin], in the assay on MDCK cells, the inhibition at 100 µM came out at 29.48 ± 0.12%.
Regarding `O=c1c(O[C@@H]2O[C@H](CO)[C@@H](O)[C@H](O)[C@H]2O)c(-c2ccc(O)c(O)c2)oc2cc(O)cc(O)c12` [Compound 9, isoquercitrin], the inhibition at 100 µM was 6.22 ± 0.53% in assay [1] (setting [3]), under 0% in the assay with MDCK cells and -8.36 ± 2.6% in assay [2] (MDCK).
For `Cc1cc(O)ccc1O[C@@H]1O[C@H](CO)[C@@H](O)[C@H](O)[C@H]1O` [Compound 6, isohomoarbutin], the values for the inhibition at 100 µM (in assay [1] (setting [4]); in the assay on MDCK cells; in assay [2] (setting [5])) were 10.2 ± 1.24%, under 0% and 12.2 ± 1.33%, respectively.
In the case of `C[C@@H]1O[C@@H](Oc2c(-c3ccc(O)c(O)c3)oc3cc(O)cc(O)c3c2=O)[C@H](O)[C@H](O)[C@H]1O` [Compound 8, quercitrin], the values for the inhibition at 100 µM (in assay [1] (setting [3]); with MDCK cells; in assay [2] (MDCK)) were 18.5 ± 1.02%, under 0% and 0.65 ± 1.45%, respectively.
As to `Cc1cc(O)ccc1O[C@H]1O[C@@H](CO)[C@H](O)[C@@H](O[C@H]2O[C@@H](CO)[C@H](O)[C@@H](O)[C@@H]2O)[C@@H]1O` [Compound 1, 3′-O-β-D-glucopyranosyl-isohomoarbutin], the inhibition at 100 µM in assay [1] (setting [4]) was -11.7 ± 1.14%; in the assay on MDCK cells it was 4.89 ± 0.05%; in assay [2] (setting [5]), 9.44 ± 0.78%.
Take `O=c1c(O[C@@H]2O[C@@H](CO)[C@H](O)[C@H]2O)c(-c2ccc(O)cc2)oc2cc(O)cc(O)c12` [Compound 12, juglanin]: the inhibition at 100 µM was 14.2 ± 0.69% in assay [1] (setting [3]), under 0% with MDCK cells and 3.27 ± 0.31% in assay [2] (MDCK). In addition, the “Inhibitory activity on Cl^− transport compared to blank group (in words)” value in assay [2] is “general inhibitory activity”.
On to “(1R,3R,4R)-3-methylcyclohexanol β-D-glucopyranoside [Compound 4]”, for which, in assay [1] (MDCK Transwell), the “Transport Inhibition Rate (%) Na^+” value is “higher than 20% and 21.13 ± 0.89 ^e %”. In addition, the “Diuretic activity (overall, in words)” value in assay [1] is listed as “potent diuretic activity”. In addition, in the assay on MDCK cells, the “Growth Inhibition Rate (%)” value came out at 4.89 ± 0.05%. Moreover, the “Transport Inhibition Rate (%) Cl^−” value in assay [2] (setting [5]) is given as 12.23 ± 0.18 ^e %.
For `O=c1c(O)c(-c2ccc(O)cc2)oc2cc(O)cc(O)c12` [Compound 11, kaempferol], in assay [1] (3 h, Figure 3), the “Na^+ transport suppression rate at 3 h compared with hydrochlorothiazide (in words)” value is “exceeds that of hydrochlorothiazide”. Also, the inhibition at 100 µM in assay [1] (setting [3]) is over 20%; in the assay with MDCK cells it was under 0%; in assay [2] (MDCK), 27.7 ± 1.18%. Besides, the “Transport Inhibition Rate (%) Na^+” value in assay [1] (MDCK Transwell) is on record as 28.81± 1.04 ^e %. Moreover, the “Diuretic activity (overall, in words)” value in assay [1] is reported as “potent diuretic activity”.
In the case of `O=c1c(O[C@@H]2O[C@H](CO)[C@H](O)[C@H](O)[C@H]2O)c(-c2ccc(O)c(O)c2)oc2cc(O)cc(O)c12` [Compound 10, hyperoside], the inhibition at 100 µM in assay [1] (setting [3]) is 1.82 ± 0.81%; in the assay with MDCK cells it was under 0%; in assay [2] (MDCK) it was -13.2 ± 1.89%.
As to `O=c1c(O)c(-c2ccc(O)c(O)c2)oc2cc(O)cc(O)c12` [Compound 7, quercetin], the “Na^+ transport inhibition rate at 1 h” value in assay [1] (Figure 3) is listed as “more than 30.24%”. Moreover, the inhibition at 100 µM is over 20% in assay [1] (setting [3]), under 0% in the assay on MDCK cells and 20.7 ± 0.74% in assay [2] (MDCK). In addition, the “Transport Inhibition Rate (%) Na^+” value in assay [1] (MDCK Transwell) is listed as 35.95 ± 1.42 ^e %. Further, in assay [1], the “Diuretic activity (overall, in words)” value is “potent diuretic activity”. Also, the “Cl^− transport inhibition rate at peak, second hour” value in assay [2] (second hour (peak), Figure 4) is “higher than 20%”.
For `C/C(=C\Cc1c(O)ccc(O[C@H]2O[C@@H](CO)[C@H](O)[C@@H](O)[C@@H]2O)c1C)CO` [Compound 5, 3-[(E)-4-hydroxy-3-methyl-2-butenyl]-4-hydroxy-2-methylphenyl-O-β-D-glucopyranoside], the inhibition at 100 µM is 7.61 ± 0.71% in assay [1] (setting [4]), 4.08 ± 0.03% in the assay with MDCK cells and 4.57 ± 0.65% in assay [2] (setting [5]). The “Inhibitory activity on Cl^− transport compared to blank group (in words)” value in assay [2] is listed as “good inhibitory activity”.
Regarding `NS(=O)(=O)c1cc2c(cc1Cl)NCNS2(=O)=O` [Hyd, hydrochlorothiazide, reference compound], the “Na^+ transport inhibition rate at 1 h” value in assay [1] (Figure 3) came out at 27.91%. The “Transport Inhibition Rate (%) Na^+” value in assay [1] (MDCK Transwell) was 39.74 ± 0.64 ^e %. Also, the inhibition at 100 µM in the assay with MDCK cells was under 0%. For the same compound, the “Transport Inhibition Rate (%) Cl^−” value in assay [2] (setting [5]) is 23.42 ± 0.87 ^e %.
For the compound `Cc1cc(O)c(-c2cc(O[C@@H]3O[C@H](CO)[C@@H](O)[C@H](O)[C@H]3O)c(C)cc2O)cc1O[C@@H]1O[C@H](CO)[C@@H](O)[C@H](O)[C@H]1O` [Compound 3, 5-5′-dehydro-di (2-methyl-4-hydroxy-phenyl-1-O-β-D-glucopyranoside)], the inhibition at 100 µM with MDCK cells came out at 23.31 ± 0.13%.
